This note sets out measurements from US9611263B2, “Compounds that modulate intracellular calcium” (CALCIMEDICA, INC., priority 2013, dated 2017).

Experiment [1] concerns the target T1, Orai1/STIM1 (Homo sapiens, UniProt Q96D31).
T1 construct: expressed in transfected cells
Put plainly: Fluorescence-based assay of store-operated calcium entry in Orai1/STIM1 stable cells. It counts as cell-based. To be noted: HEK-293 cells stably expressing human STIM1 and Orai1; 50% inhibition of Peak-Basal fluorescence signal; read-out: Orai1/STIM1 (IC50, μmol). As for the experimental part:
A. Fluorescence-Based Assay of Store-Operated Calcium Entry in Orai1/STIM1 Stable Cells.
Cells stably expressing recombinant human STIM1 and Orai1 are generated by transfecting a human Orai1 expression plasmid (pcDNA3.1-Orai1-cmyc) into HEK-293 cells stably overexpressing human STIM1 (Roos et al. 2005 JCB 169(3): 435-445). Colonies of cells stably expressing both STIM1 and Orai1 proteins are selected and then subcloned by limiting dilution. Cells were cultured at 37° C./6% CO2 in complete medium with 10% FBS and appropriate selection markers.
The day prior to performing the assay Orai1/STIM1 stable cells are plated in 50 μL of complete medium at 90-95% confluence in a 384 well plate. Cells are grown at 37° C./6% CO2 overnight. On the day of the assay, 1.5 μM fluo-4-AM (Invitrogen) in complete medium is added to the cells, which are then incubated for 1 hour at RT. Cells are washed once in Ca^2+-free HBSS (Hank's buffered saline solution) and 35 μl of Ca^2+-free HBSS is added to each well. Test compounds are added to wells in a 10 μL Ca^2+-free HBSS solution, prepared at 4.5× the desired final concentration, and incubated for 30 minutes at RT. The initial baseline fluorescence signal is then measured with a FLIPR^384 (Molecular Devices) plate reader. Calcium entry is initiated by adding 5 μl of 10× CaCl2 (10 mM) in HBSS, and changes in cellular fluorescence are measured with the FLIPR^384 plate reader. In each well, the magnitude of the fluorescence signal as a result of calcium entry into the cell is determined by calculating the difference between the peak fluorescence signal measured after calcium addition and the initial baseline fluorescence signal (designated Peak-Basal). IC50 values are typically calculated as the concentration that inhibited 50% of the Peak-Basal signal.

The subject of experiment [2] is RBL-2H3 cells. Put plainly: Fluorescence-based assay of store-operated calcium entry in RBL-2H3 cells. As to conditions: for pIC50: Rattus norvegicus, RBL-2H3, thapsigargin, 50% inhibition of Upslope, read-out: RBL-2H3 (IC50, μmol). It is filed as cell-based, rat. As for the experimental part:
B. Fluorescence-Based Assay of Store-Operated Calcium Entry in RBL-2H3 Cells.
RBL-2H3 cells are obtained from ATCC and maintained in complete medium with 10% FBS at 37° C./6% CO2.
The day prior to performing the assay, RBL-2H3 cells are plated in 50 μL of complete medium in a 384 well plate. Cells are grown at 37° C./6% CO2 overnight and grow to 50-60% confluence by the next day. On the assay day, 1.5 μM Fluo-4-AM dye (Invitrogen) in complete medium is added and incubated for 1 hour at RT. Cells are washed twice in Ca^2+-free HBSS buffer and 35 μL Ca^2+-free HBSS buffer is added to each well. 10 μL of a test compound prepared in a Ca^2+-free HBSS solution at 4.5× of the desired concentration is added to a well and incubated for 5 minutes at RT. 10 μL of thapsigargin prepared in a Ca^2+-free HBSS solution at 5.5× of the desired concentration (5.5 uM) is added to each well and incubated for an additional 25 minutes. The initial baseline fluorescence signal is measured with a FLIPR^384 (Molecular Devices) plate reader. 5 μL of 12× calcium in HBSS (12 mM) is added and changes in cellular fluorescence are measured with the FLIPR^384 plate reader. In each well, the change in the fluorescent signal as a function of time due to calcium entry into the cell is determined by calculating the difference between the fluorescent signal measured 7 seconds after calcium addition and the initial baseline fluorescence signal at time zero (t=0). This parameter is designated Upslope. The IC50 value is calculated as the concentration at which 50% of the Upslope is inhibited.

pIC50: −log10 of the molar value.

T1 sequence (Q96D31 whole entry): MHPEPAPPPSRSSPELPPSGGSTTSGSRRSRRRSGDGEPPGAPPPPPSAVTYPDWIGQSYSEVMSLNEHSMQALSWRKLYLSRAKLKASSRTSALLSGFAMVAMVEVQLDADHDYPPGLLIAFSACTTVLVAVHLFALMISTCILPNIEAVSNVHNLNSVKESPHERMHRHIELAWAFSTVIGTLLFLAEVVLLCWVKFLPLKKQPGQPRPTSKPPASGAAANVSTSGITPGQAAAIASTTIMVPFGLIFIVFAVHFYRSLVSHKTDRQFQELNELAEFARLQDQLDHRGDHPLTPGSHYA

Regarding `Cc1nn(-c2nccs2)cc1-c1ccc(NC(=O)c2cc(F)nc(F)c2)cc1F` [Example 16, 2,6-difluoro-N-(3-fluoro-4-(3-methyl-1-(thiazol-2-yl)-1H-pyrazol-4-yl)phenyl)isonicotinamide], the pIC50 in experiment [1] and in experiment [2] was > 6.22 in each case.
In the case of `O=C(Nc1cnc(-c2cn(-c3nccs3)nc2C2CC2)cn1)c1c(F)cccc1F` [Example 47, N-(5-(3-cyclopropyl-1-(thiazol-2-yl)-1H-pyrazol-4-yl)pyrazin-2-yl)-2,6-difluorobenzamide], the pIC50 is < 5.92 in experiment [1] and > 6.22 in experiment [2].
Take `O=C(Nc1ccc(-c2cn(-c3nccs3)nc2C(F)(F)F)c(F)c1)c1c(F)cccc1F` [Example 51, 2,6-difluoro-N-(3-fluoro-4-(1-(thiazol-2-yl)-3-(trifluoromethyl)-1H-pyrazol-4-yl)phenyl)benzamide]: the pIC50 in experiment [1] is < 5.92; in experiment [2] it was > 6.22.
In the case of `Cc1nn(-c2nccs2)cc1-c1ccc(NC(=O)c2ccccc2OC(F)F)cc1` [Example 5, 2-(difluoromethoxy)-N-(4-(3-methyl-1-(thiazol-2-yl)-1H-pyrazol-4-yl)phenyl)benzamide], the pIC50 in experiment [1] and in experiment [2] was > 6.22 each time.
For `Cc1nn(-c2nccs2)cc1-c1ccc(NCc2c(F)cccc2F)cc1F` [Example 75, N-(2,6-difluorobenzyl)-3-fluoro-4-(3-methyl-1-(thiazol-2-yl)-1H-pyrazol-4-yl)aniline], the pIC50 in experiment [1] and in experiment [2] was > 6.22 throughout.
As to `CCc1nn(-c2nccs2)cc1-c1ccc(NC(=O)c2ccccc2F)s1` [Example 74, N-(5-(3-ethyl-1-(thiazol-2-yl)-1H-pyrazol-4-yl)thiophen-2-yl)-2-fluorobenzamide], the pIC50 in experiment [1] and in experiment [2] was > 6.22 throughout.
Turning to `Cc1cccc(F)c1C(=O)Nc1ccc(-c2cn(-c3nccs3)nc2C)c(F)c1` [Example 12, 2-fluoro-N-(3-fluoro-4-(3-methyl-1-(thiazol-2-yl)-1H-pyrazol-4-yl)phenyl)-6-methylbenzamide], the pIC50 in experiment [1] was 5.92 to 6.22; in experiment [2], > 6.22.
`Cc1nn(-c2nccs2)cc1-c1ccc(NC(=O)c2ccccc2OC(F)F)cc1F` [Example 17, 2-(difluoromethoxy)-N-(3-fluoro-4-(3-methyl-1-(thiazol-2-yl)-1H-pyrazol-4-yl)phenyl)benzamide]: the values for the pIC50 in experiment [1] and in experiment [2] were 5.92 to 6.22 and > 6.22, respectively.
Take `Cc1cccc(F)c1C(=O)Nc1cnc(-c2cn(-c3nccs3)nc2C)cn1` [Example 26, 2-fluoro-6-methyl-N-(5-(3-methyl-1-(thiazol-2-yl)-1H-pyrazol-4-yl)pyrazin-2-yl)benzamide]: the pIC50 in experiment [1] and in experiment [2] was > 6.22 throughout.
As for `CCc1nn(-c2nccs2)cc1-c1ccc(NC(=O)c2c(F)ccc(F)c2F)nc1` [Example 36, N-(5-(3-ethyl-1-(thiazol-2-yl)-1H-pyrazol-4-yl)pyridin-2-yl)-2,3,6-trifluorobenzamide], the pIC50 in experiment [1] and in experiment [2] was > 6.22 in each case.
With `N#Cc1nn(-c2cc(F)ccc2F)cc1-c1ccc(NC(=O)c2c(F)cccc2F)nc1` [Example 62, N-(5-(3-cyano-1-(2,5-difluorophenyl)-1H-pyrazol-4-yl)pyridin-2-yl)-2,6-difluorobenzamide], the pIC50 in experiment [1] was 5.92 to 6.22; in experiment [2], > 6.22.
As to `Cc1nn(-c2nccs2)cc1-c1cnc(NC(=O)c2c(F)ccc(F)c2F)s1` [Example 67, 2,3,6-trifluoro-N-(5-(3-methyl-1-(thiazol-2-yl)-1H-pyrazol-4-yl)thiazol-2-yl)benzamide], the figures for the pIC50 in experiment [1] and in experiment [2] were 5.92 to 6.22 and > 6.22, respectively.
`O=C(Nc1cnc(-c2cn(-c3nccs3)nc2C2CC2)cn1)c1ccccc1F` [Example 50, N-(5-(3-cyclopropyl-1-(thiazol-2-yl)-1H-pyrazol-4-yl)pyrazin-2-yl)-2-fluorobenzamide]: the pIC50 in experiment [1] and in experiment [2] was > 6.22 in each case.
On to `O=C(Nc1ccc(-c2cn(-c3nccs3)nc2C2CC2)c(F)c1)c1c(F)cccc1F` [Example 41, N-(4-(3-cyclopropyl-1-(thiazol-2-yl)-1H-pyrazol-4-yl)-3-fluorophenyl)-2,6-difluorobenzamide], for which the pIC50 is < 5.92 in experiment [1] and > 6.22 in experiment [2].
The like results for `Cc1nn(-c2nccs2)cc1-c1cnc(NC(=O)c2c(F)ccc(F)c2F)cn1` [Example 27, 2,3,6-trifluoro-N-(5-(3-methyl-1-(thiazol-2-yl)-1H-pyrazol-4-yl)pyrazin-2-yl)benzamide] were, in that order, > 6.22 and > 6.22.
As to `Cc1nn(-c2nccs2)cc1-c1cnc(NC(=O)c2ccc(F)c(F)c2F)cn1` [Example 29, 2,3,4-trifluoro-N-(5-(3-methyl-1-(thiazol-2-yl)-1H-pyrazol-4-yl)pyrazin-2-yl)benzamide], in experiment [1], the pIC50 is < 5.92.
Regarding `Cc1nn(-c2nccs2)cc1-c1ccc(NC(=O)c2c(F)ccc(F)c2F)cc1F` [Example 13, 2,3,6-trifluoro-N-(3-fluoro-4-(3-methyl-1-(thiazol-2-yl)-1H-pyrazol-4-yl)phenyl)benzamide], the pIC50 in experiment [1] and in experiment [2] was > 6.22 each time.
As to `O=C(Nc1cnc(-c2cn(-c3nccs3)nc2C2CC2)cn1)c1c(F)cc(F)cc1F` [Example 49, N-(5-(3-cyclopropyl-1-(thiazol-2-yl)-1H-pyrazol-4-yl)pyrazin-2-yl)-2,4,6-trifluorobenzamide], the pIC50 is 5.92 to 6.22 in experiment [1] and > 6.22 in experiment [2].
With `Cc1ccc(F)c(C(=O)Nc2ccc(-c3cn(-c4ccccc4F)nc3C)cn2)c1F` [Example 60, 2,6-difluoro-N-(5-(1-(2-fluorophenyl)-3-methyl-1H-pyrazol-4-yl)pyridin-2-yl)-3-methylbenzamide], the pIC50 in experiment [1] and in experiment [2] was > 6.22 throughout.
Take `Cc1nn(-c2nccs2)cc1-c1cnc(NC(=O)c2c(F)cccc2F)cn1` [Example 24, 2,6-difluoro-N-(5-(3-methyl-1-(thiazol-2-yl)-1H-pyrazol-4-yl)pyrazin-2-yl)benzamide]: the pIC50 in experiment [1] and in experiment [2] was > 6.22 each time.
Take `Cc1nn(-c2nccs2)cc1-c1ccc(NC(=O)c2ccc(F)c(F)c2F)cc1F` [Example 15, 2,3,4-trifluoro-N-(3-fluoro-4-(3-methyl-1-(thiazol-2-yl)-1H-pyrazol-4-yl)phenyl)benzamide]: the pIC50 in experiment [1] and in experiment [2] was > 6.22 throughout.
As to `Cc1cnc(-n2cc(-c3ccc(NC(=O)c4c(F)cc(F)cc4F)nc3)c(C)n2)s1` [Example 65, 2,4,6-trifluoro-N-(5-(3-methyl-1-(5-methylthiazol-2-yl)-1H-pyrazol-4-yl)pyridin-2-yl)benzamide], the pIC50 in experiment [1] is > 6.22. Moreover, the RBL-2H3 efficacy in experiment [2] (given in place of a class) is reported as <50%.
With `CCc1nn(-c2nccs2)cc1-c1ccc(NC(=O)c2c(F)cccc2F)s1` [Example 73, N-(5-(3-ethyl-1-(thiazol-2-yl)-1H-pyrazol-4-yl)thiophen-2-yl)-2,6-difluorobenzamide], the results for the pIC50 in experiment [1] and in experiment [2] were 5.92 to 6.22 and > 6.22, respectively.
In the case of `Cc1nn(-c2nccs2)cc1-c1ccc(NC(=O)c2ccc(F)c(F)c2F)nc1` [Example 22, 2,3,4-trifluoro-N-(5-(3-methyl-1-(thiazol-2-yl)-1H-pyrazol-4-yl)pyridin-2-yl)benzamide], the pIC50 in experiment [1] was 5.92 to 6.22.
